US20210299150A1, “AP39 IMPACT ON MITOCHONDRIA, METABOLISM, GENE TRANSCRIPTION REGULATION, CARDIOTOXICITY PROTECTION AND CANCER TREATMENT” (priority 2020, published 2021)
Blank lines part the entries; values can stand above or below the molecule they belong to.

Legend:
[1] = tested on: SK-N-BE(2) and SK-N-BE(1) cell lines; settings: previous study; cited from earlier work
[2] = cited from earlier work
[3] = tested on: SK-N-BE(2) neuroblastoma cell line; test: Cell viability (images, MTT) of SK-N-BE(2) neuroblastoma cell line; assay type: cell-based, human
Protocol: (§1) Methods for cell viability: Cells were plated in 96 wells/6 wells cell culture plates. After 24 hrs of plating, the treatments (added in the growth medium) were conducted. The following assays were performed after 24 hrs of the treatments (day 2). (FIGS. 15A, 17-20, 24-27)
(§2) MTT assay methods. For the MTT assay, […] of 5 mg/ml MTT-tetrazolium salts in PBS was added to each well containing the growth medium. After 3 hours of incubation, the medium was removed and the formazan crystals were dissolved by adding DMSO. The absorption of the formazan solution was measured using a spectrophotometer at a wavelength of 570 nm. FIGS. 15B, 21-22.
The SK-N-BE(2) neuroblastoma cell line was exposed to control, AP39 (AP) at 40 or 60 μM, Doxorubicin at 2.5 or 20 μM, thiolactate at 10 mM, AP39 and Doxorubicin, AP39 and thiolactate, or Doxorubicin and Thiolactate. […] FIGS. 17, 21, 24-25.

H9C2 cells [4] = test: Mitochondrial H2S levels (AzMAC) and morphology (mitotracker Red) in H9C2 cells; assay type: cell-based, Rat; settings: H9C2, single agent vs control
Source text: Note that white arrow heads and yellow arrows compare and contrast no-H2S: fusion and H2S-presence: fission scenarios in the same image AP39 treatment lane.
Mitochondrial fission was correlated with H2S levels. To investigate the impact of Dox on mitochondrial biogenesis and mitochondrial H2S levels, H9C2 cells were used in combination with H2S sensitive dye AzMAC and mitotracker Red dye as reported previously^8. […] Further, H2S levels (yellow arrows) highly correlated with a dotted appearance of mitochondria, implying that H2S causes mitochondrial fission, which is a prerequisite for eliminating damaged mitochondria^49.

[5] = 13C-glucose isotope tracing and GC-MS metabolite quantification; assay type: cell-based
Protocol: Stable isotope (13C glucose) tracer studies. Heatmap.
To this end, 13C-glucose flux/isotope tracing and quantified metabolites through GC-MS were examined at 16 hrs and 24 hrs after the treatments. Glucose, glutamine and lactate were also measured in supernatants at these time points. […] With the exception of glycolytic metabolites, the remaining metabolic pathways (poor labeling) were non-operational after Dox treatment (FIG. 10A).
When considered AP39-mediated activation of AMPK, H2S is selectively halting energy consuming anabolic pathways, such as protein synthesis (also, lipid, AMPK inhibits […], a rate limiting lipid synthesizing enzyme, FIGS. 7A and B), as observed before^41, thus leading to accumulation of amino acids and is enhancing TCA cycle through AMPK activation. The net result is better energy management with AP39/H2S treatment.

hiPSC-CMs = test: DIC in hiPSC-CMs (Annexin V, MitoSox Red); assay type: cell-based, human
H9C2 cells [6] = test: Mitochondrial ROS, MitoSox Red, H9C2; assay type: cell-based, Rat; settings: H9C2, Dox alone
Protocol: AP39 treatment also ameliorated Dox toxicity in a model of Rat cardiomyoblast cell line, H9C2. […] There was a narrow window of protection, as 30 μM and 50 μm doses were not as strong as the 40 μM dose (FIGS. 5A and B) in conferring protection. […] Note that Dox caused an apoptotic phenotype in correlation with ROS levels (FIG. 5F, Dox lane). This in vitro AP39 protection is modest when compared to the in vivo scenario. This difference may be due to rapid clearance of toxic metabolites (for instance, higher lactate production, FIG. 10D) and better oxygen supply (AP39 stimulated OCR, FIG. 7C) in vivo and lack of such sophistication in vitro.

[7] = tested on: Myc/Max-regulated transcripts; test: RNAseq analysis in H9C2 cell line; assay type: cell-based, Rat; settings: H9C2, Dox alone
Protocol: The coverage among groups are indicated.
Next, to interrogate mechanisms of AP39 protection against DIC, RNAseq analysis was performed. There was sufficient coverage of the whole transcriptome among the groups (FIG. 8A).

[8] = tested on: 786-O cells renal cancer cells; test: Cell viability of 786-O renal cancer cells; assay type: cell-based
Protocol: as §1, §2
786-O cells renal cancer cells were exposed to control, AP39 (AP) at 40 or 60 μM, Doxorubicin at 2.5 or 20 μM, thiolactate at 10 mM, AP39 and Doxorubicin, AP39 and thiolactate, or Doxorubicin and Thiolactate. […] FIGS. 18 and 21.

H1299 lung cancer cells = test: Cell viability of H1299 lung cancer cells; assay type: cell-based
Protocol: as §1, §2
H1299 lung cancer cells were exposed to control, AP39 (AP) at 40 or 60 μM, Doxorubicin at 2.5 or 20 μM, thiolactate at 10 mM, AP39 and Doxorubicin, AP39 and thiolactate, or Doxorubicin and Thiolactate. […] FIGS. 20-22.

A549 lung cancer cells = test: Cell viability of A549 lung cancer cells; assay type: cell-based
Protocol: as §1, §2
A549 lung cancer cells were exposed to control, AP39 (AP) at 40 or 60 μM, Doxorubicin at 2.5 or 20 μM, thiolactate at 10 mM, AP39 and Doxorubicin, AP39 and thiolactate, or Doxorubicin and Thiolactate. […] FIGS. 19 and 21.

MCF7 breast cancer cells = test: Cell viability (MTT, crystal violet) of MCF7 breast cancer cells; assay type: cell-based
Protocol: as §1, §2
Crystal Violet (CV) assay. For the CV Staining assay, cells were stained with 0.5% crystal violet in 30% ethanol for 10 minutes at room temperature after removal of the medium. The cells were lysed in a 1% SDS (sodium dodecyl sulfate) solution. The absorbance of the solution was measured using a spectrophotometer at a wavelength of 595 nm. FIG. 27.
MCF7 breast cancer cells were exposed to control, AP39 (AP) at 40 or 60 μM, Doxorubicin at 2.5 or 20 μM, thiolactate at 10 mM, AP39 and Doxorubicin, AP39 and thiolactate, or Doxorubicin and Thiolactate. […] FIGS. 26-27.

[9] = AP39 40 or 60 μM, thiolactate 10 mM, 24 hrs
[10] = combination with Doxorubicin 2.5 μM

DIC in hiPSC-CMs at lower dose of Dox (hiPSC-CMs; 2.5 μM Dox, donor, data not showed): exhibited resistance to DIC
mitochondrial ROS levels (H9C2 cells [6]): elevating damaging ROS levels
SMILES: COc1cccc2c1C(=O)c1c(O)c3c(c(O)c1C2=O)C[C@@](O)(C(=O)CO)C[C@@H]3O[C@H]1C[C@H](N)[C@H](O)[C@H](C)O1 [Dox, Doxorubicin]
IC90 for SK-N-BE(2) relative to IC90 for SK-N-BE(1) [1]: 9230 times
late cardiac dysfunction incidence ([2]; after Dox treatment): 16%
sub-clinical disease rate ([2]; after Dox treatment): over 50%
Cumulative left ventricular systolic dysfunction (LVSD) incidence rate ([2]; within 18 months of Dox treatment): 12%
effective Dox dose ([3]; AP39 used along with Dox): 2.5 µM
IC70 of Dox ([3]; Dox alone, 24 hrs): 20 µM
mitochondrial H2S levels (AzMAC) (H9C2 cells [4]): significantly reduced mitochondrial H2S production
mitochondrial morphology (fission / fusion) (H9C2 cells [4]): mitochondrial fusion
Serine and glycine 13C labeling ([5]; 16 hrs and 24 hrs): highly labeled
abundance of most metabolites (GC-MS) ([5]; 24 hrs of Dox treatment): present in abundant amounts
cell death in hiPSC-CMs (hiPSC-CMs; 7.5 μM Dox, 48 hrs): significant cell death
Myc transcription [7]: attenuated Myc transcription

SMILES: CC(S)C(=O)O (stereo not drawn) [thiolactate, Thiolactate]
cell killing, agent alone [3, 9]: able to kill SK-N-BE(2) cells
potency of low doses of Doxorubicin [3, 10]: able to increase the potency of low doses of Doxorubicin
cell killing, agent alone [8, 9]: able to kill renal cancer cells
potency of low doses of Doxorubicin [8, 10]: able to increase the potency of low doses of Doxorubicin
cell killing, agent alone (H1299 lung cancer cells; [9]): able to kill lung cancer cells
potency of low doses of Doxorubicin (H1299 lung cancer cells; [10]): able to increase the potency of low doses of Doxorubicin
cell killing, agent alone (A549 lung cancer cells; [9]): able to kill lung cancer cells
potency of low doses of Doxorubicin (A549 lung cancer cells; [10]): able to increase the potency of low doses of Doxorubicin
cell killing, agent alone (MCF7 breast cancer cells; [9]): able to kill breast cancer cells
potency of low doses of Doxorubicin (MCF7 breast cancer cells; [10]): able to increase the potency of low doses of Doxorubicin
